Measured values taken from ChEMBL document CHEMBL2176947, “Discovery of the First Potent Inhibitors of Mutant IDH1 That Lower Tumor 2-HG in Vivo” (ACS Med Chem Lett, 2012).
pIC50: −log10 of the molar value.

Biological target: Isocitrate dehydrogenase [NADP] cytoplasmic (Homo sapiens, UniProt O75874, R132H)
Assay: Inhibition of IDH1 R132H mutant using alpha-ketoglutarate as substrate after 60 mins by resazurin-based fluorimetric analysis

Chain of Isocitrate dehydrogenase [NADP] cytoplasmic (O75874 2-414 R132H limits assumed): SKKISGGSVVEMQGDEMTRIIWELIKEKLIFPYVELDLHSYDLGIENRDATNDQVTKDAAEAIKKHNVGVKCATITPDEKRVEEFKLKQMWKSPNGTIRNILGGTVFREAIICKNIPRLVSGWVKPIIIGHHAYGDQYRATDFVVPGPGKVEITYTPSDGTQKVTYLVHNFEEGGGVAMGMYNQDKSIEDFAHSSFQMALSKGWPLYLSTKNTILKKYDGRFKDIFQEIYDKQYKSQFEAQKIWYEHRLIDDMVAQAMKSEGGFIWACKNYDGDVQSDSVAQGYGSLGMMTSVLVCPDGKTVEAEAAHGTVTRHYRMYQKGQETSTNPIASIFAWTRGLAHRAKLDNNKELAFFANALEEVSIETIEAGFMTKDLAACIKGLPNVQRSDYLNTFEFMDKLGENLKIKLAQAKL

Row | SMILES | pIC50
1 | O=C(NC1CCCCC1)[C@H](c1ccccc1)N(C(=O)Cc1cccs1)c1cccc(F)c1 | 7.22
2 | O=C(NC1CCCCC1)[C@@H](c1ccccc1)N(C(=O)Cc1cccs1)c1cccc(F)c1 | < 4.96
3 | Cc1ccccc1C(C(=O)NC1CCCCC1)N(C(=O)CNC1CCCCC1)c1cccc(F)c1 (racemic) | 5.90
4 | Cc1ccccc1C(C(=O)NC1CCCCC1)N(C(=O)CNc1ccccc1)c1cccc(F)c1 (racemic) | 7.22
5 | Cc1ccccc1C(C(=O)NC1CCCCC1)N(C(=O)CN(C)c1ccccc1)c1cccc(F)c1 (racemic) | 7.30
6 | Cc1ccccc1C(C(=O)NC1CCCCC1)N(C(=O)CN1CCc2ccccc21)c1cccc(F)c1 (racemic) | 6.85

Continued, values first:

Row | pIC50 | SMILES
7 | 5.79 | Cc1ccccc1C(C(=O)NC1CCCCC1)N(C(=O)CN1CCCC1)c1cccc(F)c1 (racemic)
8 | 6.62 | Cc1ccccc1C(C(=O)NC1CCCCC1)N(C(=O)CN1CCOCC1)c1cccc(F)c1 (racemic)
9 | 5.25 | Cc1ccccc1C(C(=O)NC1CCCCC1)N(C(=O)CN1CCNCC1)c1cccc(F)c1 (racemic)
